30 molecules from patent publication US8273762B2, “Hexahydro-pyrrolo-isoquinoline compounds” (Janssen Pharmaceutica NV, priority 2005, dated 2012) can be followed below.

By Ki is commonly meant the dissociation constant of the complex between target and ligand, obtained from inhibition or displacement.

Like-named read-outs stand apart in the source and are kept apart here.

Assay [1] has as its target T1, Rat SERT (Rattus norvegicus, UniProt P31652).
T1 construct: A rat brain without cerebellum (Zivic Laboratories, Inc.—Pittsburgh, Pa.) was homogenized; tissue Zivic Laboratories, Inc; host or cells: rat brain without cerebellum, membranes
Description: Rat brain SERT binding ([3H]-Citalopram displacement).

Assay [2] deals with T2, human H3 receptor (SK-N-MC cells) (Homo sapiens, UniProt Q9Y5N1).
T2 construct: expressed in transfected cells; host or cells: SK-N-MC sublines with CRE-beta-galactosidase reporter
Description: Cyclic AMP accumulation (β-galactosidase reporter, Schild analysis vs histamine). The format is cell-based.
Description: The reporter gene (β-galactosidase) is under the control of multiple cyclic AMP responsive elements. In 96-well plates, histamine was added directly to the cell media followed 5 min later by an addition of forskolin (5 μM final concentration). When appropriate, antagonists were added 10 min prior to agonist addition. After a 6-h incubation at 37° C., the media was aspirated and the cells washed with 200 μL of phosphate-buffered saline followed by a second aspiration. Cells were lysed with 25 μL 0.1× assay buffer (10 mM Na-phosphate, pH 8, 0.2 mM MgSO4, 0.01 mM MnCl2) and incubated at rt for 10 min. Cells were then incubated for 10 min with 100 μL of 1× assay buffer containing 0.5% Triton and 40 mM β-mercaptoethanol. Color was developed using 25 μL of 1 mg/mL substrate solution (chlorophenolred β-D galactopyranoside; Roche Molecular Biochemicals, Indianapolis, Ind.).

Assay [3] concerns the target T3, cloned human H3 receptor, stably expressed in SK-N-MC cells (Homo sapiens, UniProt Q9Y5N1).
T3 construct: expressed in transfected cells
Description: H3 receptor binding (N-[3H]-α-methylhistamine displacement). The note with it: SK-N-MC membranes, 0.8 nM N-[3H]-α-methylhistamine.

Assay [4] has as its target T4, human SERT (HEK293 membranes) (Homo sapiens, UniProt P31645).
T4 construct: purchased Perkin-Elmer; host or cells: HEK293 membranes
Description: Human SERT binding (3H-citalopram displacement).
Description: Nonspecific binding was determined in the presence of 10 μM fluoxetine for the SERT. The membranes were washed and the radioactivity was counted as above.

Where [5] appears, read: rat brain membranes, 0.6 nM [3H]-Citalopram, read-out: Rat SERT Ki.

T4 sequence (P31645 whole entry): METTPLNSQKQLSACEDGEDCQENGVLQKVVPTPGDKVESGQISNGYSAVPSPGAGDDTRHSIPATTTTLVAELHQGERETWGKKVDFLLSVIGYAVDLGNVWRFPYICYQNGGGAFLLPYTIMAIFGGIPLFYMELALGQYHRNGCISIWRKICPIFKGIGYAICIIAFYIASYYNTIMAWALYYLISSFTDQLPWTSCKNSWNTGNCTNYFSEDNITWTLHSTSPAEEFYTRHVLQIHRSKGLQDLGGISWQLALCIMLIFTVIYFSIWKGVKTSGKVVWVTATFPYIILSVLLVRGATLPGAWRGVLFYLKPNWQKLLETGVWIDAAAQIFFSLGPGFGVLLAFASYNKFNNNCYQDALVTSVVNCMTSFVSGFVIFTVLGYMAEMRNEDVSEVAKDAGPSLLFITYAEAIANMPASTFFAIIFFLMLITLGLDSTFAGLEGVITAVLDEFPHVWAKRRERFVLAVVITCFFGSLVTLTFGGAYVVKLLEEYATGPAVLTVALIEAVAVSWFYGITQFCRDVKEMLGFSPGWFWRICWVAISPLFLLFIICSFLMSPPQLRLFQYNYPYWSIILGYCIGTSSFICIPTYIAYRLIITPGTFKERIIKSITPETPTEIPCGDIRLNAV
T1 sequence (P31652 whole entry): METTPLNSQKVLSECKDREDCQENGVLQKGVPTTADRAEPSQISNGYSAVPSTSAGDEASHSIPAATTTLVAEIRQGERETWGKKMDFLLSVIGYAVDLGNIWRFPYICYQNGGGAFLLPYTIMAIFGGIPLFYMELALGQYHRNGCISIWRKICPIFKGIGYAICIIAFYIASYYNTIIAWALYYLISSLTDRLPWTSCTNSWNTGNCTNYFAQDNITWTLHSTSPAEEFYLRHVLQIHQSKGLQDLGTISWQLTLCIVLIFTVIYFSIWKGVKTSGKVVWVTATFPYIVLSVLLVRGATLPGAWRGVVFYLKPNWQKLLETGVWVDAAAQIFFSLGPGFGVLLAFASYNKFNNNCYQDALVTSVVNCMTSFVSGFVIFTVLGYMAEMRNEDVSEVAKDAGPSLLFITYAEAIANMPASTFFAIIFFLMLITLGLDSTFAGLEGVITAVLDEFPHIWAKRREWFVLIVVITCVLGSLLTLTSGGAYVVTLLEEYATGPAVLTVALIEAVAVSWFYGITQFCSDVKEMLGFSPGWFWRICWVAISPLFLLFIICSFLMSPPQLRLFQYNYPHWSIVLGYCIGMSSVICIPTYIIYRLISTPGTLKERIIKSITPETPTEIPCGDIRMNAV
T3 sequence (Q9Y5N1 whole entry): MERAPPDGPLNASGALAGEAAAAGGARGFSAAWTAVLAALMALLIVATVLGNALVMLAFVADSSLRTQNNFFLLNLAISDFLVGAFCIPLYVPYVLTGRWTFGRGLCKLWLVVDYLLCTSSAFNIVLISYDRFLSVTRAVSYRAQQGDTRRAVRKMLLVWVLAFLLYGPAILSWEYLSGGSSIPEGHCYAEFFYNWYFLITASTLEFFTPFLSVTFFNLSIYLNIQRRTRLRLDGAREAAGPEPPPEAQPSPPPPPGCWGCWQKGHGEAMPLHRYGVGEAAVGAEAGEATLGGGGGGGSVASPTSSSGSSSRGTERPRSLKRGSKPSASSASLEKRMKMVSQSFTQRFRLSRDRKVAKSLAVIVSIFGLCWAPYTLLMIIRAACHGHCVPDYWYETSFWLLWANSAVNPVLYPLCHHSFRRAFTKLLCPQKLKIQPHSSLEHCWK
T2 sequence (Q9Y5N1 whole entry): as above

Consider `c1ccc([C@@H]2CN3CCC[C@H]3c3cc(OCCCN4CCCCC4)ccc32)cc1` (relative stereo) [Example 1B, Trans-6-Phenyl-9-(3-piperidin-1-yl-propoxy)-1,2,3,5,6,10b-hexahydro-pyrrolo[2,1a]isoquinoline], for which the Ki in assay [1] (setting [5]) came to 138 nM; in assay [3], 0.2 nM. Further, in assay [2] (read-out: H3 pA2 (converted)), the Kb was 0.251 nM.
For `c1ccc([C@@H]2CN3CCC[C@H]3c3cccc(OCCCN4CCCCC4)c32)cc1` (relative stereo) [Example 1C, Trans-6-Phenyl-7-(3-piperidin-1-yl-propoxy)-1,2,3,5,6,10b-hexahydro-pyrrolo[2,1a]isoquinoline], the inhibition constant Ki in assay [1] (setting [5]) came out at 4000 nM; in assay [3] it was 68 nM.
As to `O=[N+]([O-])c1ccc([C@@H]2CN3CCC[C@H]3c3cc(OCCCN4CCCCC4)ccc32)cc1` (relative stereo) [Example 2B, Trans-6-(4-Nitro-phenyl)-9-(3-piperidin-1-yl-propoxy)-1,2,3,5,6,10b-hexahydro-pyrrolo[2,1-a]isoquinoline], the Ki in assay [1] (setting [5]) worked out at 544 nM; in assay [3], 31 nM. The Kb in assay [2] (read-out: H3 pA2 (converted)) is 1.58 nM.
Turning to `O=[N+]([O-])c1cccc([C@@H]2CN3CCC[C@H]3c3cccc(OCCCN4CCCCC4)c32)c1` (relative stereo) [Example 4D, Trans-6-(3-Nitro-phenyl)-7-(3-piperidin-1-yl-propoxy)-1,2,3,5,6,10b-hexahydro-pyrrolo[2,1-a]isoquinoline], the values for the Ki in assay [1] (setting [5]) and in assay [3] were 154 nM and 1 nM, respectively.
As for `FC(F)(F)c1ccc([C@@H]2CN3CCC[C@H]3c3cc(OCCCN4CCCCC4)ccc32)cc1` (relative stereo) [Example 7A, Cis-9-(3-Piperidin-1-yl-propoxy)-6-(4-trifluoromethyl-phenyl)-1,2,3,5,6,10b-hexahydro-pyrrolo[2,1-a]isoquinoline], the Ki in assay [1] (setting [5]) came to 27 nM.
Same read-out and setting: to `FC(F)(F)c1ccc([C@@H]2CN3CCC[C@@H]3c3cc(OCCCN4CCCCC4)ccc32)cc1` (relative stereo) [Example 7B, Trans-9-(3-Piperidin-1-yl-propoxy)-6-(4-trifluoromethyl-phenyl)-1,2,3,5,6,10b-hexahydro-pyrrolo[2,1-a]isoquinoline] belongs 25 nM.
`FC(F)(F)c1ccc([C@@H]2CN3CCC[C@H]3c3cccc(OCCCN4CCCCC4)c32)cc1` (relative stereo) [Example 7C]: the Ki in assay [1] (setting [5]) worked out at 630 nM; in assay [3] it was 31 nM.
In the same order, the values of `Oc1ccc([C@@H]2CN3CCC[C@H]3c3cccc(OCCCN4CCCCC4)c32)cc1` (relative stereo) [Example 9B] are 6000 nM and 1000 nM.
Turning to `COc1cccc([C@@H]2CN3CCC[C@H]3c3cc(OCCCN4CCCCC4)ccc32)c1` (relative stereo) [Example 10B, Trans-6-(3-Methoxy-phenyl)-9-(3-piperidin-1-yl-propoxy)-1,2,3,5,6,10b-hexahydro-pyrrolo[2,1-a]isoquinoline], the values for the Ki in assay [1] (setting [5]) and in assay [3] were 37 nM and 2 nM, respectively. For the same molecule, the Kb in assay [2] (read-out: H3 pA2 (converted)) was 0.251 nM.
For `COc1cccc([C@@H]2CN3CCC[C@H]3c3cccc(OCCCN4CCCCC4)c32)c1` (relative stereo) [Example 10C, Trans-6-(3-Methoxy-phenyl)-7-(3-piperidin-1-yl-propoxy)-1,2,3,5,6,10b-hexahydro-pyrrolo[2,1-a]isoquinoline], the values for the Ki in assay [1] (setting [5]) and in assay [3] were 2000 nM and 82 nM, respectively.
Regarding `Clc1cccc([C@H]2CN3CCC[C@H]3c3cc(OCCCN4CCCCC4)ccc32)c1` (relative stereo) [Example 11B, Trans-6-(3-Chloro-phenyl)-9-(3-piperidin-1-yl-propoxy)-1,2,3,5,6,10b-hexahydro-pyrrolo[2,1-a]isoquinoline], the results for the Ki in assay [1] (setting [5]) and in assay [3] were 91 nM and 1 nM, respectively. For the same molecule, the Kb in assay [2] (read-out: H3 pA2 (converted)) is 0.501 nM.
Regarding `Clc1cccc([C@@H]2CN3CCC[C@H]3c3cccc(OCCCN4CCCCC4)c32)c1` (relative stereo) [Example 11C], the Ki in assay [1] (setting [5]) stood at 1000 nM; in assay [3], 136 nM.
For `Oc1ccccc1[C@H]1CN2CCC[C@H]2c2cc(OCCCN3CCCCC3)ccc21` (relative stereo) [Example 16], the Ki in assay [4] came out at 112 nM; in assay [3], 4 nM. Moreover, in assay [2] (read-out: H3 pA2 (converted)), the Kb was 1.26 nM.
Regarding `COc1ccc([C@H]2CN3CCC[C@H]3c3cc(OCCCN4CCCCC4)ccc32)cc1OC` (relative stereo) [Example 18], the Ki in assay [4] is 13 nM; in assay [3] it was 0.9 nM. Also, the Kb in assay [2] (read-out: H3 pA2 (converted)) was 0.501 nM.
The corresponding values for `COc1ccc([C@H]2CN3CCC[C@H]3c3cc(OCCCN4CCCCC4)ccc32)c(OC)c1` (relative stereo) [Example 19] are 5 nM, 1 nM and 0.398 nM.
In the case of `COc1ccc(OC)c([C@H]2CN3CCC[C@H]3c3cc(OCCCN4CCCCC4)ccc32)c1` (relative stereo) [Example 20], the Ki came to 43 nM in assay [4] and 1 nM in assay [3]. Also, in assay [2] (read-out: H3 pA2 (converted)), the Kb is 1 nM.
Turning to `COc1cc(OC)cc([C@H]2CN3CCC[C@H]3c3cc(OCCCN4CCCCC4)ccc32)c1` (relative stereo) [Example 21], the Ki in assay [4] worked out at 5 nM; in assay [3], 1 nM. Further, the Kb in assay [2] (read-out: H3 pA2 (converted)) is 0.794 nM.
In the same order, the values of `COc1cc([C@H]2CN3CCC[C@H]3c3cc(OCCCN4CCCCC4)ccc32)cc(OC)c1OC` (relative stereo) [Example 22] are 220 nM, 0.8 nM and 0.631 nM.
For the molecule `Ic1cccc([C@H]2CN3CCC[C@H]3c3cc(OCCCN4CCCCC4)ccc32)c1` (relative stereo) [Example 32], the results for the Ki in assay [4] and in assay [3] were 11 nM and 1 nM, respectively. Further, in assay [2] (read-out: H3 pA2 (converted)), the Kb is 0.316 nM.
With `C[Si](C)(C)C#Cc1cccc([C@H]2CN3CCC[C@H]3c3cc(OCCCN4CCCCC4)ccc32)c1` (relative stereo) [Example 33], the results for the Ki in assay [1] and in assay [3] were 33 nM and 7 nM, respectively. This molecule also showed a Kb in assay [2] of 7.94 nM.
As to `C#Cc1cccc([C@H]2CN3CCC[C@H]3c3cc(OCCCN4CCCCC4)ccc32)c1` (relative stereo) [Example 34], the values for the Ki in assay [4] and in assay [3] were 3 nM and 2 nM, respectively. Moreover, in assay [2] (read-out: H3 pA2 (converted)), the Kb was 1 nM.
Regarding `Ic1ccc([C@@H]2CN3CCC[C@H]3c3cc(OCCCN4CCCCC4)ccc32)cc1` (relative stereo) [Example 35A, Cis-6-(4-Iodo-phenyl)-9-(3-piperidin-1-yl-propoxy)-1,2,3,5,6,10b-hexahydro-pyrrolo[2,1-a]isoquinoline], the Ki was 7 nM in assay [4] and 4 nM in assay [3]. Further, in assay [2] (read-out: H3 pA2 (converted)), the Kb was 3.98 nM.
As to `C#Cc1ccc([C@H]2CN3CCC[C@H]3c3cc(OCCCN4CCCCC4)ccc32)cc1` (relative stereo) [Example 37], the results for the Ki in assay [4] and in assay [3] were 0.8 nM and 4 nM, respectively. Further, the Kb in assay [2] (read-out: H3 pA2 (converted)) is 1.58 nM.
With `COc1ccc([C@@H]2CN3CCC[C@H]3c3cc(C#CCCN4CCCCC4)ccc32)cc1` (relative stereo) [Example 96A, Cis-6-(4-methoxy-phenyl)-9-(4-piperidin-1-yl-but-1-ynyl)-1,2,3,5,6,10b-hexahydro-pyrrolo[2,1-a]isoquinoline], the figures for the Ki in assay [4] and in assay [3] were 9 nM and 1 nM, respectively. In addition, the Kb in assay [2] (read-out: H3 pA2 (converted)) is 6.31 nM.
The corresponding values for `CSc1ccc([C@@H]2CN3CCC[C@H]3c3ccc(C#CCCN4CCCCC4)cc32)cc1` (relative stereo) [Example 97A, Cis-6-(4-methylsulfanyl-phenyl)-8-(4-piperidin-1-yl-but-1-ynyl)-1,2,3,5,6,10b-hexahydro-pyrrolo[2,1-a]isoquinoline] are 2000 nM, 3 nM and 1.58 nM.
In the same order, the values of `CSc1ccc([C@@H]2CN3CCC[C@H]3c3cc(C#CCCN4CCCCC4)ccc32)cc1` (relative stereo) [Example 98A, Cis-6-(4-methylsulfanyl-phenyl)-9-(4-piperidin-1-yl-but-1-ynyl)-1,2,3,5,6,10b-hexahydro-pyrrolo[2,1-a]isoquinoline] are 2 nM, 4 nM and 10 nM.
In the case of `CSc1ccc(C2CN3CCCC3c3cccc(OCCCN4CCCCC4)c32)cc1` (stereo not shown) [Example 39C, 6-(4-Methylsulfanyl-phenyl)-7-(3-piperidin-1-yl-propoxy)-1,2,3,5,6,10b-hexahydro-pyrrolo[2,1-a]isoquinoline], the figures for the Ki in assay [1] (setting [5]) and in assay [3] were 69 nM and 36 nM, respectively.
For `CSc1ccc([C@@H]2CN3CCC[C@@H]3c3cc(OCCCN4CCOCC4)ccc32)cc1` [Example 89, (1R,6S)-6-(4-Methylsulfanyl-phenyl)-9-(3-morpholin-4-yl-propoxy)-1,2,3,5,6,10b-hexahydro-pyrrolo[2,1-a]isoquinoline], the Ki in assay [1] (setting [5]) turned out to be 3 nM; in assay [3] it was 16 nM.
Regarding `CSc1ccc([C@H]2CN3CCC[C@H]3c3cc(OCCCN4CCOCC4)ccc32)cc1` [Example 90, (1S,6R)-6-(4-Methylsulfanyl-phenyl)-9-(3-morpholin-4-yl-propoxy)-1,2,3,5,6,10b-hexahydro-pyrrolo[2,1-a]isoquinoline], the Ki in assay [1] (setting [5]) turned out to be 24 nM; in assay [3], 10 nM.
Turning to `COc1ccc([C@H]2CN3CCC[C@H]3c3cc(OCCCN4CCOCC4)ccc32)cc1` [Example 91, (1S,6R)-6-(4-Methoxy-phenyl)-9-(3-morpholin-4-yl-propoxy)-1,2,3,5,6,10b-hexahydro-pyrrolo[2,1-a]isoquinoline], the Ki in assay [1] (setting [5]) stood at 60 nM. The Kb in assay [2] (read-out: H3 pA2 (converted)) is 3.16 nM.
